One assay relates to iPSC-derived fibroblasts. Nature of the assay: Progerin modified-RNA overexpression in iPSC-derived fibroblasts, age-associated markers (immunocytochemistry, MitoSOX). The format is cell-based, human. Particulars: modified-RNA 3 days; young and old donor iPSC-derived fibroblasts; vs nuclear-GFP. As to the method:
The following is a protocol for progerin overexpression using modified-RNA in differentiating or differentiated iPSC-derived cells: • 1. Prepare progerin-modified-RNA (methods of synthesis are described in Example 9) and deliver to iPSC-derived somatic cells using Lipofectamine RNAiMAX (Life Technologies) and incubate • a. For iPSC-derived fibroblasts repeat transfection for 3 consecutive days. • i. Note: Amount/duration combination optimizes treatment for minimal toxicity and earliest significant effects. • b. For iPSC-derived dopamine neurons repeat transfection for 5 consecutive days. • i. Note: Amount/duration combination optimizes treatment for minimal toxicity and earliest significant effects. • c. For other iPSC-derived somatic cells perform pilot experiments to determine amount and duration of progerin modified-RNA. • d. Analyze maturation and/or age-associated phenotypes. • Alternatively, expression of progerin can also be achieved through the use of temperature-sensitive Sendai virus expressing progerin. Additionally, expression of progerin can be achieved by using lentivirus.
For overexpression experiments, modified-RNA was thawed on ice and adjusted to a working concentration of 100 ng/μl. Per 100,000-cell transfection, 200 ng of modified-RNA was diluted up to 10 μl in Opti-MEM medium (Life Technologies), vortexed, and incubated at room temperature for 10 minutes. In a separate tube, 0.6 μl Lipofectamine RNAiMAX® (Life Technologies) was diluted up to 10 μl in Opti-MEM and incubated for the same timeframe. The Lipofectamine mixture was then transferred to the tube containing the modified-RNA mixture, vortexed and incubated for an additional 10 minutes. The transfection mixture was added dropwise to cells that had been pre-treated with 200 ng/ml of the interferon inhibitor B18R (eBioscience, San Diego, Calif.) for at least 4 hours prior to transfection.
After 4 hours at 37° C., the entire suspension was replaced with fresh medium supplemented with B18R. Transfection of iPSC-derived fibroblasts was performed starting on day 50 of differentiation and repeated on 2 consecutive days thereafter. iPSC-derived mDA neurons were transfected starting on day 65 or day 120 of differentiation and repeated on 4 consecutive days thereafter. The additional 2 days of transfections were done in order to establish a phenotype in iPSC-derived mDA neurons. Cells were analyzed one day after the final transfection.
Cells were fixed in 4% paraformaldehyde for 15 minutes. Blocking was performed in phosphate-buffered saline supplemented with 1% BSA, and 0.3% Triton X-100 for 30 minutes to 1 hour. Cells were stained overnight at 4° C. with primary antibodies diluted in blocking buffer. Following several washes, cells were stained with appropriate Alexa Fluor-labeled secondary antibodies (Molecular Probes, Carlsbad, Calif.) at 1:500 in blocking buffer for 30 minutes to 3 hours at room temperature. Cells were counterstained with 4′,6-diamidino-2-phenylindole (DAPI; Thermo Fisher, Rockford, Ill.) to visualize nuclei. Images were acquired with an Olympus IX81 microscope using a Hamamatsu ORCA CCD camera.
Images were acquired on an Operetta (PerkinElmer, Waltham, Mass.) using a 20× objective. Image processing was performed using Harmony high content analysis software (version 3.0).
Passage-matched cells were scored from three independent experiments. […] In these cases, 50 cells per condition were assessed for each independent experiment. […]

In the next assay the test system is iPSC-derived mDA neurons. Nature of the assay: RNA-seq gene expression analysis of iPSC-derived mDA neurons. In kind it is cell-based, human. Particulars: progerin vs nuclear-GFP. As for the experimental part: Cells were lysed directly in Trizol (Life Technologies). RNA was extracted using chloroform and ethanol precipitation and further cleaned using the RNeasy kit (Qiagen). Samples were stored at −80° C. until further processing. Total RNA was reverse transcribed (Superscript, Life Technologies) and 50 ng of RNA was used to template each RT-PCR reaction. For analysis of progerin expression levels, total RNA was hydrolyzed by 0.1× volume 5 M NaOH for 30 minutes at room temperature followed by 0.1× volume 5 M HCl (Scaffidi et al., Science 312:1059-1063 (2006)). Quantitative RT-PCR was performed using the Mastercycler RealPlex2 (Eppendorf, Hauppauge, N.Y.) platform following the manufacturer's instructions. Expression levels were normalized to cyclophillin A or 18S (housekeeping gene controls) as noted. For RNA-seq, total RNA was isolated from two independent experiments and processed by the MSKCC Genomic core facility.
Paired-end 75 base pair RNA-sequencing libraries were sequenced on an Illumina HiSeq2000. Reads were mapped to the human genome (Hg19) using STAR 2.3.0e (Dobin et al., Bioinformatics 29:15-21 (2013) with default mapping parameters and read counts were assessed using HTSeq. Principal component analysis was completed in R (v2.15.2) using the base “stats” package. Differentially expressed genes were identified with limma voom (Smyth, Stat Appl Genet Mol Biol 3:Article3 (2004)). A conservative approach was taken to account for low coverage in the sequencing library; a low read count filter was used such that samples contained non-zero read counts for a gene to be assessed in limma. Differentially expressed genes were identified using a fold change cut off of +/−2 and a Bonferroni adjusted p value of 0.05. A hypergeometric test was used to assess the similarity in response to progerin overexpression in young donor and old donor iPSC-derived mDA neurons. […]

With “GFP-progerin: progerin (truncated lamin A) fused to GFP, SEQ ID No. 2, overexpressed via modified-RNA or hSyn lentivirus”, in the assay with iPSC-derived fibroblasts, the “DNA damage (γH2AX)” value was “formation of DNA double strand breaks”; the LAP2α expression result is reported as “loss of LAP2α expression”; the “heterochromatin markers (H3K9me3 and HP1γ)” value is listed as “loss of heterochromatin markers”; the “mitochondrial superoxide (MitoSOX)” value was “increased mitochondrial dysfunction”. Moreover, in the assay on iPSC-derived fibroblasts, the nuclear morphology entry was “induced nuclear morphology abnormalities”. Further, in the assay with iPSC-derived mDA neurons, the BCAS1 expression entry is “downregulation”, the SIRT4 expression result is on record as “downregulation” and the ZNHT3 expression entry was “upregulation”.

For the origin of these results see patent publication US9963674B2, “Age-modified cells and methods for making age-modified cells” (Memorial Sloan-Kettering Cancer Center, priority 2013, dated 2018).
